According to patent US20260364174A1, “Purpurin Analogs for Use in Photodynamic Therapy” (RMW Cho Group Limited, priority 2023, published 2026):

Legend:
[1] = test system: SKOV3 ovarian cancer cells; experiment: Inherent cytotoxicity (dark toxicity): % viable SKOV3 cells (AlamarBlue) without light; format: cell-based, human; conditions: 24 h incubation, no light
Method: (§1) Photosensitizers (e.g. purpurin analogue, chlorin e4 disodium (provided by Advanced Molecular Technologies, Scoresby) or Talaporfin sodium (purchased from Focus Bioscience cat #HY-16477-5MG)) were resuspended in 100% dimethylsulfoxide (DMSO) at a concentration of 5.5 mM. Samples were stored at 4 °C protected from light.
(§2) For in vitro experiments, photosensitizers (stock solution 5.5 mM in 100% DMSO) were diluted 1:100 in concentrated excipient solution (final 55 μM photosensitizer in 10% w/v Kollidon-12, 42.4% w/v polysorbate 80, 40% w/v ethanol, 1.0% DMSO). Serial dilutions were prepared in cell culture media (Dulbecco's Modified Eagle Medium/Nutrient Mixture F-12 (DMEM/F-12)) supplemented with 10% v/v Fetal Bovine Serum, 100 U/mL penicillin, 100 μg/mL streptomycin and the same excipient solution at a constant 1:55 dilution.
(§3) Human ovarian cancer cell line SKOV3 (ATCC #HTB-77) was maintained in Dulbecco's Modified Eagle Medium/Nutrient Mixture F-12 (DMEM/F-12), supplemented with […] Fetal Bovine Serum, 100 U/mL penicillin and 100 μg/mL streptomycin. Monolayer cultures were grown in a humidified incubator at 37 °C with 5% CO2. Once cells had reached ~80% confluence, spent media was replaced with media containing photosensitizer at the required concentration and cells were incubated for the desired period of time to allow photosensitizer uptake.
(§4) All data were analysed using GraphPad PRISM v8.3.1 (549) (GraphPad Software, CA). Spectral absorbance and viability measurements were normalized in the range 0-100%, with a minimum of 0 and a maximum value determined from the dataset. Dose response was determined using a sigmoidal four-point non-linear regression with variable slope, and IC10 or IC90 calculated for each compound. All data are shown as mean±SD (where appropriate).
(§5) SKOV3 cells were seeded in 96-well black wall plates (Greiner #655090) at a cell density of 5000 cells in 100 μl culture medium per well. On reaching ~60% confluence, media was aspirated and replaced with fresh media containing the relevant purpurin analogue from 0-100 μM in DMSO. Cells were incubated for a further 24 hours, allowing uptake of purpurin analogues.
To test for inherent cytotoxicity (i.e. “dark toxicity”) of the purpurin analogues, the culture media was replaced after 24 hours with fresh media containing 10% (v/v) AlamarBlue Cell Viability Reagent (ThermoFisher) and cells incubated at 37 °C for 6 hours. Untreated cells were used as a control. Fluorescence (Ex 555 nm/Em 596 nm) was measured using a CLARIOstar Plus Microplate Readear (BMG Labtech), and cytotoxicity assessed according to the % viable cells remaining. All measurements were made in quadruplicate.
(§6) The phototoxicity and inherent cytotoxicity (i.e. “dark toxicity”) of purpurin analogues were assessed as previously using SKOV3 ovarian cancer cells. For comparative purposes, purpurin analogues were compared against chlorin e4 disodium and Talaporfin sodium, a clinically approved photosensitizer used in the photodynamic treatment of lung cancers. Phototoxicity IC90 values and dark toxicity IC10 values were calculated using a log[inhibitor]-vs normalized response dose curve with variable slope, using the formula Y=100/(1+(IC90/X)^HillSlope (phototoxicity IC90)) or Y=100/(1+(IC10/X)^HillSlope (dark toxicity IC10)).

[2] = test system: SKOV3 ovarian cancer cells; experiment: Therapeutic index (phototoxicity IC90 vs dark toxicity IC10); format: cell-based, human
Method: as §6
To evaluate the therapeutic potential of purpurin analogues, the therapeutic index (TI) was calculated. TI provides a quantitative measurement to describe relative drug safety, by comparing the drug concentration required for desirable effects versus the concentration resulting in undesirable off-target toxicity. TI was calculated using phototoxicity IC90 vs dark toxicity IC10.

[3] = test system: SKOV3 ovarian cancer cells; experiment: Phototoxicity: % viable SKOV3 cells (AlamarBlue) after incubation with photosensitizer and 680 nm LED activation; format: cell-based; conditions: Homo sapiens, SK-OV-3, light or radiation study, 24 h uptake, 50 mW/cm^2 for 5 mins (15 J/cm^2), viability after further 24 h
Method: as §1, §2, §3, §4, §5
To test for phototoxicity, cells incubated with purpurin analogues ([…] in DMSO) had culture media replaced after 24 hours (as above) and were then exposed to a 680 nm light-emitting diode (LED) panel (Invion) with optical power density at 50 mW/cm^2 for 5 mins (total 15 J/cm^2). Laser and LED exposure induce an equivalent response in relation to phototoxicity. Following activation, cells were cultured for a further 24 hours. Media was then replaced with fresh media containing AlamarBlue, and % viable cells remaining assessed as above. Controls included cells treated with purpurin analogues but not activated by laser light; cells without purpurin analogue treatment but with laser light; and untreated controls. All measurements were made in quadruplicate.
as §6

[4] = test system: TAA- or CCl4-induced acute liver injuries; conditions: mice; cited from earlier work
[5] = test system: indomethacin-induced gastric lesions; conditions: rats; cited from earlier work

C=Cc1c(C)c2cc3nc(c(C)c4[nH]c(cc5nc(cc1[nH]2)C(C)=C5CC)c(C)c4C(=O)O)[C@@H](CCC(=O)O)[C@@H]3C [Chlorin e4 disodium, chlorin e4 disodium, reference compound]
Dark toxicity (IC10) [1]: 40230 nM | Therapeutic Index [2]: 1.89 | IC90 [3]: 21300 nM

C=Cc1c(C)c2cc3nc(c(C)c4nc(cc5[nH]c(cc1[nH]2)c(C)c5CC)C(C)=C4C(=O)O)[C@@H](CCC(=O)O)[C@@H]3C [Chlorin e4]
protective effect against TAA- or CCl4-induced acute liver injuries [4]: protective effect | protective effect against indomethacin-induced gastric lesions [5]: protective effect against indomethacin-induced gastric lesions in rats

CCCCCCN1C(=O)c2c3nc(cc4[nH]c(cc5nc(cc6[nH]c2c(c6C)C1=O)C(CC)=C5C)c(COC(=O)NCCC[P+](c1ccccc1)(c1ccccc1)c1ccccc1)c4C)[C@@H](C)[C@@H]3CCC(=O)OC [Compound 1, purpurin 18 13-(N-(3-triphenylphosphoniumpropyl)bromide)carbamate N-hexylimide methyl ester]
Dark toxicity (IC10) [1]: 79630 nM | Therapeutic Index [2]: 1731.09 | IC90 [3]: 46 nM

CCCCCCN1C(=O)c2c3nc(cc4[nH]c(cc5nc(cc6[nH]c2c(c6C)C1=O)C(CC)=C5C)c(COC(=O)CCCC[P+](c1ccccc1)(c1ccccc1)c1ccccc1)c4C)[C@@H](C)[C@@H]3CCC(=O)OC [Compound 2, purpurin 18 N-hexylimide 13-(oxopentyl)triphenylphosphonium bromide]
Dark toxicity (IC10) [1]: 77630 nM | Therapeutic Index [2]: 2875.19 | IC90 [3]: 27 nM

CCC1=C(C)c2cc3[nH]c(cc4nc(c5c6[nH]c(cc1n2)c(C)c6C(=O)N(CCOCCOC)C5=O)[C@@H](CCC(=O)OC)[C@@H]4C)c(C)c3COC(=O)NCCC[P+](c1ccccc1)(c1ccccc1)c1ccccc1 [Compound 3, purpurin 18 13-(N-(3-triphenylphosphoniumpropyl)bromide)carbamate N-(2-(2-methoxyethoxy)ethyl)imide methyl ester]
Dark toxicity (IC10) [1]: 50840 nM | Therapeutic Index [2]: 498.43 | IC90 [3]: 102 nM

C=Cc1c(C)c2cc3nc(c4c5[nH]c(cc6nc(cc1[nH]2)C(C)=C6CC)c(C)c5C(=O)N(CCC[P+](c1ccccc1)(c1ccccc1)c1ccccc1)C4=O)[C@@H](CCC(=O)N(C)CCOCCOC)[C@@H]3C [Compound 4, purpurin 18 N-(3-triphenylphosphoniumpropylbromide)imide N-(2-(2-methoxyethoxy)ethyl)-N-methyl-amide]
Dark toxicity (IC10) [1]: 49910 nM | Therapeutic Index [2]: 4991.00 | IC90 [3]: 10 nM

C=Cc1c(C)c2cc3nc(c4c5[nH]c(cc6nc(cc1[nH]2)C(C)=C6CC)c(C)c5C(=O)OC4=O)[C@@H](CCC(=O)NCCC[P+](c1ccccc1)(c1ccccc1)c1ccccc1)[C@@H]3C [Compound 5, purpurin 18 (N-(3-triphenylphosphoniumpropyl)bromide)amide]
Dark toxicity (IC10) [1]: 49880 nM | Therapeutic Index [2]: 9976.00 | IC90 [3]: 5 nM

C=Cc1c(C)c2cc3nc(c4c5[nH]c(cc6nc(cc1[nH]2)C(C)=C6CC)c(C)c5C(=O)N(CCOCCOC)C4=O)[C@@H](CCC(=O)NCCC[P+](c1ccccc1)(c1ccccc1)c1ccccc1)[C@@H]3C [Compound 6, purpurin 18 (N-(3-triphenylphosphoniumpropyl)bromide)amide N-(2-(2-methoxyethoxy)ethyl)imide]
Dark toxicity (IC10) [1]: 51070 nM | Therapeutic Index [2]: 5674.44 | IC90 [3]: 9 nM

CCCCCCN1C(=O)c2c3nc(cc4[nH]c(cc5nc(cc6[nH]c2c(c6C)C1=O)C(CC)=C5C)c(CN(C)C(=O)CCCC[P+](c1ccccc1)(c1ccccc1)c1ccccc1)c4C)[C@@H](C)[C@@H]3CCC(=O)OC [Compound 7, purpurin 18 N-hexylimide 13-(N-methyl-5-triphenylphosphonium bromidepentanamide) methyl ester]
Dark toxicity (IC10) [1]: 49400 nM | Therapeutic Index [2]: 2352.38 | IC90 [3]: 21 nM

C=Cc1c(C)c2cc3nc(c(CC(=O)N[C@@H](CC(=O)O)C(=O)O)c4[nH]c(cc5nc(cc1[nH]2)C(C)=C5CC)c(C)c4C(=O)O)[C@@H](CCC(=O)O)[C@@H]3C [Talaporfin sodium, reference compound]
Dark toxicity (IC10) [1]: 11100 nM | Therapeutic Index [2]: 0.49
